Measurements from ChEMBL document CHEMBL1141211, “2-(Quinazolin-4-ylamino)-[1,4]benzoquinones as covalent-binding, irreversible inhibitors of the kinase domain of vascular endothelial growth factor receptor-2” (J Med Chem, 2005).

Experiments:
[1] = Half life at 10 uM in the presence of 100 uM reduced glutathione in H2O-Acetonitrile (1:1); type: ADME; conditions: reduced glutathione solution in H2O-acetonitrile (1:1)
[2] = molecular target: T1, Vascular endothelial growth factor receptor 2 (Homo sapiens, UniProt P35968); assay: Inhibition of poly(Glu4-Tyr)peptide phosphorylation by recombinant VEGFR2 at 10 uM ATP and in presence of 100 uM glutathione
T1 sequence (P35968 whole entry): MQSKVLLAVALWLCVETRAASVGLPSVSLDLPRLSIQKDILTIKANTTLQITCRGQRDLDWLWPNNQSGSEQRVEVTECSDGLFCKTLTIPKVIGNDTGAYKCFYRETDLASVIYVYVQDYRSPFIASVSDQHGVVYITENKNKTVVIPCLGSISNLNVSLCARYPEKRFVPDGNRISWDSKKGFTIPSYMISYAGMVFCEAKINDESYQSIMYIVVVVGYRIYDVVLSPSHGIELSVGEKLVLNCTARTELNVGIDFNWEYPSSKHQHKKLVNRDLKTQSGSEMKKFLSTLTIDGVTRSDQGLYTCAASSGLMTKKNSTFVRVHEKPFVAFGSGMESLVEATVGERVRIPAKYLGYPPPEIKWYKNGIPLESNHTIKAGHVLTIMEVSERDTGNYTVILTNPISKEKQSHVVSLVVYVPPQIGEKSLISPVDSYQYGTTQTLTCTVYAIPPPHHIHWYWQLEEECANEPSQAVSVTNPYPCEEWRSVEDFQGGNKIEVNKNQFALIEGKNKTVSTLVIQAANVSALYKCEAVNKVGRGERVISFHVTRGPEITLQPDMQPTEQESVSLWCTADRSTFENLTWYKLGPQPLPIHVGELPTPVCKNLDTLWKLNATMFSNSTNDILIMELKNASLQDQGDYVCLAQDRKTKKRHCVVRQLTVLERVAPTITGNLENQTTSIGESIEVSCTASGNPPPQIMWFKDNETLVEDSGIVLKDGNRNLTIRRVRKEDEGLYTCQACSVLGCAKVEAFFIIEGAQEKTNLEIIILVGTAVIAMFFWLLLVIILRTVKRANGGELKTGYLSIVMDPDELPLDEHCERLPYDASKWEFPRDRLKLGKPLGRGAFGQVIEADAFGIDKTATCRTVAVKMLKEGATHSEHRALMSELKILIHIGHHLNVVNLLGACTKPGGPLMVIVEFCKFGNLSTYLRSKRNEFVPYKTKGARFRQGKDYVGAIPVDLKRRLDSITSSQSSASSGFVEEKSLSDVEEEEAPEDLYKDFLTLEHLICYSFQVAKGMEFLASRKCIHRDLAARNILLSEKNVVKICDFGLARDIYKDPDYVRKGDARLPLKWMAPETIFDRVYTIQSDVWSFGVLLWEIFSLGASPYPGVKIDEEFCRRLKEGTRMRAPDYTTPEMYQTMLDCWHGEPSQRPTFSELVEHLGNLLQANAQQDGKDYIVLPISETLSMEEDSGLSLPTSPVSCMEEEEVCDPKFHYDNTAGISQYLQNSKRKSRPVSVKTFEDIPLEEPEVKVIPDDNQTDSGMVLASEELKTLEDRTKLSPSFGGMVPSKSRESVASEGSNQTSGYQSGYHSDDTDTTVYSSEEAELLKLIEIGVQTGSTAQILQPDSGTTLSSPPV

[3] = molecular target: T1, Vascular endothelial growth factor receptor 2; assay: Inhibition of poly(Glu4-Tyr)peptide phosphorylation by recombinant VEGFR2 at 10 uM ATP and in presence of 5% mouse plasma; type: cell-free
[4] = molecular target: T1, Vascular endothelial growth factor receptor 2; assay: Inhibitory activity against VEGF stimulated autophosphorylation of VEGFR2 expressed in KDR15 cells; type: cell-based
[5] = molecular target: T1, Vascular endothelial growth factor receptor 2; assay: Inhibition of poly(Glu4-Tyr)peptide phosphorylation by recombinant VEGFR2 at 10 uM ATP
[6] = Half life at 1 uM in the presence of 100 uM reduced glutathione in H2O-Acetonitrile (1:1); type: ADME; conditions: reduced glutathione solution in H2O-acetonitrile (1:1)

half-life at 10 µM [1] [h]	IC50 [2] [nM]	IC50 [3] [nM]	IC50 [4] [nM]	IC50 [5] [nM]	half-life at 1 µM [6] [h]	Structure (SMILES)
72	> 1000	> 1000	> 1000	> 1000	62	CCOC1=CC(=O)C(Nc2ncnc3cc(OCCOC)c(OC)cc23)=CC1=O
< 0.02					< 0.02	COCCOc1cc2ncnc(NC3=CC(=O)C(Cl)=CC3=O)c2cc1OC
601					160	COCCOc1cc2ncnc(NC3=CC(=O)C(N(C)C)=CC3=O)c2cc1OC
227					213	COCCOc1cc2ncnc(NC3=CC(=O)C(OC(C)C)=CC3=O)c2cc1OC
85					73	COCCOc1cc2ncnc(NC3=CC(=O)C(N4CCN(Cc5ccccc5)CC4)=CC3=O)c2cc1OC
0.5					< 0.5	COCCOc1cc2ncnc(NC3=CC(=O)C(OC)=C(Cl)C3=O)c2cc1OC
< 0.02					< 0.02	COCCOc1cc2ncnc(NC3=CC(=O)C(Oc4ccccc4)=CC3=O)c2cc1OC
15					11	COCCOc1cc2ncnc(NC3=CC(=O)C(OC(CF)CF)=CC3=O)c2cc1OC
< 0.02					< 0.02	COCCOc1cc2ncnc(NC3=CC(=O)C(Oc4ccc(-n5ccnc5)cc4)=CC3=O)c2cc1OC
54	50.3	366		43	55	COCCOc1cc2ncnc(NC3=CC(=O)C(OCc4ccccc4)=CC3=O)c2cc1OC
295					341	COCCOc1cc2ncnc(NC3=CC(=O)C(N(C)c4ccccc4)=CC3=O)c2cc1OC
80					68	COCCOc1cc2ncnc(NC3=CC(=O)C(OC)=CC3=O)c2cc1OC
	> 1000	> 1000		> 1000		COCCOc1cc2ncnc(NC3=C(Sc4ccccn4)C(=O)C=C(OC)C3=O)c2cc1OC
3					2	COCCOc1cc2ncnc(NC3=CC(=O)C(SC)=CC3=O)c2cc1OC
	> 1000	> 1000		> 1000		COCCOc1cc2ncnc(NC3=CC(=O)C(NCC(C)O)=CC3=O)c2cc1OC (configuration not stated)
	41.9	256		31.2		COCCOc1cc2ncnc(NC3=CC(=O)C(OCc4cccc(F)c4)=CC3=O)c2cc1OC
